# Reference: US4716230A, “Certain bis(di-2 or 4-pyridyl-phosphino) alkanes #10 having anti-tumor properties” (Smithkline Beckman Corporation, priority 1986, dated 1987)
# Where “and” joins values, the source holds several entries; their conditions need not be identical. Identical values can stand only once.
# Key:
# [1] = Struck et al., J. Med. Chem., 9, 414-416 (1966); cited from earlier work
# [2] = maximally tolerated dose in mice, ip qD × 5 regimen; conditions: mouse, in vivo, B6D2F female mice
# Procedure: (§1) 10^6 P388 leukemia cells are inoculated ip in B6D2F1 mice. Twenty-four hours later, if the tumor inoculum proves to be free of bacterial contamination (as determined by 24 hours incubation in thioglycollate broth), animals are randomized into groups of 6 and housed in shoebox cages. The compound to be evaluated is dissolved in a minimal volume of either N,N-dimethylacetamide (DMA) or 95% ethanol (depending upon solubility). An equal volume of saline is added; if the drug comes out of solution an equal volume of polyethoxylated castor oil is added and then saline qs to a concentration such that the desired dose is delivered in 0.5 ml. The final concentration of DMA, ethanol and polyethoxylated castor oil is […]. Dilutions for lower doses are made with saline so there is a decreasing proportion of organic solvents in the vehicle with decreasing dosage. These vehicles provide soluble formulations (or suspensions). Formulations are prepared immediately prior to injection. The compound is administered ip on Days 1 through 5 (i.e. treatment is initiated 24 hrs after tumor inoculation). Each experiment includes three groups of 6 animals as untreated controls and animals treated with a positive control, cisplatin, at two dose levels. Animals are weighed as a group on Days 1, 5 and 9 and average weight change (Δwt.) is used as a reflection of toxicity. Each experiment also includes an inoculum titration--groups of 8 mice inoculated ip with 10^5 to […] P388 leukemia cells. The titration is used to calculate cell kill achieved by treatment with drugs. Animals are monitored daily for mortality and experiments are terminated after 45 days. The endpoint is median survival time (MST) and increase in lifespan (ILS) which is the percentage of increase in MST relative to untreated controls. Untreated controls inoculated ip with 10^6 P388 leukemia cells generally survive for a median of 9 or 11 days. A drug is considered active if it produces ≥25 percent ILS.
# ^(a) maximally tolerated dose for B6D2F female mice on an ip qD
# P388 leukemia = assay: in vivo ip P388 lymphocytic leukemia mouse model (increase in lifespan); design: species or system mouse (B6D2F1); conditions: mice bearing ip P388 leukemia; ip Days 1-5; figures separated by slashes are from separate experiments; active if ≥25 percent ILS
# Source text: P388 lymphocytic leukemia is currently the most widely used animal tumor model for screening for antitumor agents and for detailed evaluation of active compounds. This tumor system is widely accepted as an antitumor agent screening tool because it is sensitive to virtually all of the clinically active antineoplastic agents; quantitative and reproducible; amenable for large-scale screening; and predictive for activity in other animal tumor models.
# as §1
# ^(b) maximum increase in lifespan produced in mice bearing ip P388
# leukemia (figures separated by slashes indicate data generated in seperat
structure (smiles),measurement,setting,value
"c1ccc(P(CCP(c2ccccc2)c2ccccc2)c2ccccc2)cc1 [1,2-bis(diphenylphosphino)ethane]",cytotoxic activity,[1],cytotoxic activity
"c1ccc(P(CCP(c2ccccn2)c2ccccn2)c2ccccn2)nc1 [Compound 1, 1,2-Bis(di-2-pyridylphosphino)ethane]",MTD,[2],16 mg/kg
same,ILS (max) (maximum increase in lifespan),P388 leukemia,30% and 20%
"c1cc(P(CCP(c2ccncc2)c2ccncc2)c2ccncc2)ccn1 [Compound 2, 1,2-Bis(di-4-pyridylphosphino)ethane]",MTD,[2],32 mg/kg
same,ILS (max) (maximum increase in lifespan),P388 leukemia,35% and 37%
"c1csc(P(CCP(c2cccs2)c2cccs2)c2cccs2)c1 [Compound 3, 1,2-Bis(di-2-thienylphosphino)ethane]",MTD,[2],16 mg/kg
same,ILS (max) (maximum increase in lifespan),P388 leukemia,60% and 55%
"c1coc(P(CCP(c2ccco2)c2ccco2)c2ccco2)c1 [Compound 4, 1,2-Bis(di-2-furylphosphino)ethane]",MTD,[2],64 mg/kg
same,ILS (max) (maximum increase in lifespan),P388 leukemia,60% and 30% and 50%
